This experiment relates to 616215-338-R-J1-PDC spheroids with HUVEC/MSC, viability. Description: Anticancer human tumor 616215-338-R-J1-PDC patient-derived colon adenocarcinoma cell line growth inhibition [PI3K]. The following applies: for viability, T/C: stronger effect = lower value. An excerpt:
Combinatorial screen of targeted agents with the PI3K inhibitors inavolisib, alpelisib, duvelisib, and copanlisib in multi-cell type tumor spheroids
A high-throughput screen of multi-cell type tumor spheroids was designed to identify active combinations of targeted small molecules and PI3K pathway inhibitors. Complex spheroids include a stromal component modeled by human endothelial cells (HUVEC) and fibroblasts modeled by human mesenchymal stem cells (MSCs). The concentration ranges selected for each drug and investigational agent were based upon clinically achievable concentrations if the clinical Cmax of the agent was known.
Compounds. The drugs and investigational agents: inavolisib (NSC800729), alpelisib (NSC765974), duvelisib (NSC772469), copanlisib (NSC816437), ipatasertib (NSC767898), afuresertib (NSC778305), talazoparib (NSC767125), sapanisertib (NSC764658), selumetinib (NSC741078), tovorafenib (DAY101, NSC766906), vemurafenib (NSC761431), ravoxertinib (NSC781343), sotorasib (NSC818433), MRTX1133 (NSC 836407), abemaciclib (NSC 768073), palbociclib (NSC758247), venetoclax (NSC 766270), SY5609 (NSC837396), enzalutamide (NSC755605), and darolutamide (NSC825331), were obtained from the National Cancer Institute (NCI) Developmental Therapeutics Program Chemical Repository. The FDA-approved anticancer drug set is available from the NCI Developmental Therapeutics Program. […] The stock solutions were prepared in dimethyl sulfoxide (DMSO, Sigma-Aldrich, St. Louis, MO, cat. D2650) at 800-fold the tested concentration and stored at -70 degrees C prior to their use. All drugs and investigational agents were tested over a range starting from a high concentration at or near the clinical Cmax and decreasing in half-log increments. If the clinical Cmax for an agent had not been determined, the highest concentration tested was 10 microM.
Cell Culture. All cells were maintained in an incubator at 37 degrees C and 5% CO2 with 95% humidity. The PDC lines were cultured according to standard operating procedures established by the NCI PDMR (https://pdmr.cancer.gov/sops/default.htm). All PDCs were thawed and cultured in Matrigel-coated flasks prepared with a working solution of 1X Ham's F-12 nutrient mix, without supplementation (Invitrogen, Waltham, MA, cat. 11765054), 100 U/mL penicillin-streptomycin (Invitrogen, cat. 15140122), and 2.5% Matrigel (Corning Inc., Corning, NY, cat. 354248) for the first three passages. The 354836-022-R-J1-PDC, 475296-252-R-J1-PDC, and 997726-040-R-J2-PDC lines were cultured in 6A media, which includes advanced DMEM/F-12 (Thermo Fisher Scientific, cat. 12634028), 10 mM HEPES (Thermo Fisher Scientific, cat. 15630080), 1X GlutaMAX supplement (Thermo Fisher Scientific, cat. 35050061), 0.1 mg/mL primocin (InvivoGen, San Diego, CA, cat. ant-pm-2), 10% defined fetal bovine serum, heat inactivated (HyClone Laboratories Inc., Logan, UT, cat. SH30070.03HI), 50% L-WRN conditioned media (ATCC, cat. CRL-3276), 1.25 mM N-Acetyl-L-cysteine (Sigma-Aldrich, cat. A9165), 10 mM nicotinamide (Sigma-Aldrich, cat. N0636), 1X B-27 supplement (Thermo Fisher Scientific, cat. 17504044), 1X N-2 supplement (Thermo Fisher Scientific, cat. 17502048), and 10 microM Y-27632 dihydrochloride (Tocris Bioscience, Bristol, United Kingdom, cat. 1254). The 624824-186-R-J2-PDC line was cultured in 6C/Colon 1B media, which includes all 6A media components plus 50 ng/mL human EGF recombinant protein (Thermo Fisher Scientific, cat. PHG0311). […]

Each structure is given as a SMILES string. Bounds are passed on as bounds.
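Also: spheroids exposed to agents for seven days before the viability read.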

For the compound `CC(=O)c1c(C)c2cnc(Nc3ccc(N4CCNCC4)cn3)nc2n(C2CCCC2)c1=O` + CC(Nc1ccc2c(c1)OCCn1cc(N3C(=O)OCC3C(F)F)nc1-2)C(N)=O, the IC50 was over 100 nM (curve of first compound, second compound 0.00316 µM); over 100 nM (curve of first compound, second compound 0.01 µM); over 100 nM (curve of first compound, second compound 0.0316 µM); over 100 nM (curve of first compound, second compound 0.1 µM); over 100 nM (curve of first compound, second compound 0.316 µM); over 100 nM (curve of first compound, second compound 1 µM). Moreover, the viability, T/C runs as follows: (second compound 0.00316 µM, first compound 0.000316 µM) 87.7%; (second compound 0.00316 µM, first compound 0.001 µM) 104%; (second compound 0.00316 µM, first compound 0.00316 µM) 93%; (second compound 0.00316 µM, first compound 0.01 µM) 99.4%; (second compound 0.00316 µM, first compound 0.0316 µM) 94.6%; (second compound 0.00316 µM, first compound 0.1 µM) 95.9%. For the same compound, the viability, T/C by setting is: (second compound 0.01 µM, first compound 0.000316 µM) 99.6%; (second compound 0.01 µM, first compound 0.001 µM) 100%; (second compound 0.01 µM, first compound 0.00316 µM) 107%; (second compound 0.01 µM, first compound 0.01 µM) 90.2%; (second compound 0.01 µM, first compound 0.0316 µM) 99.5%; (second compound 0.01 µM, first compound 0.1 µM) 96.5%. For the same compound, the viability, T/C was 93.2% (second compound 0.0316 µM, first compound 0.000316 µM); 102% (second compound 0.0316 µM, first compound 0.001 µM); 98.2% (second compound 0.0316 µM, first compound 0.00316 µM); 101% (second compound 0.0316 µM, first compound 0.01 µM); 91.5% (second compound 0.0316 µM, first compound 0.0316 µM); 107% (second compound 0.0316 µM, first compound 0.1 µM). The viability, T/C runs as follows: (second compound 0.1 µM, first compound 0.000316 µM) 102%; (second compound 0.1 µM, first compound 0.001 µM) 99%; (second compound 0.1 µM, first compound 0.00316 µM) 92.6%; (second compound 0.1 µM, first compound 0.01 µM) 112%; (second compound 0.1 µM, first compound 0.0316 µM) 93.8%; (second compound 0.1 µM, first compound 0.1 µM) 101%. Moreover, the viability, T/C is, setting by setting: (second compound 0.316 µM, first compound 0.000316 µM) 106%; (second compound 0.316 µM, first compound 0.001 µM) 112%; (second compound 0.316 µM, first compound 0.00316 µM) 100%; (second compound 0.316 µM, first compound 0.01 µM) 106%; (second compound 0.316 µM, first compound 0.0316 µM) 98%; (second compound 0.316 µM, first compound 0.1 µM) 90.2%. Besides, the viability, T/C (second compound 1 µM, first compound 0.000316 µM) is 105%; the viability, T/C (second compound 1 µM, first compound 0.001 µM) is 94.7%; the viability, T/C (second compound 1 µM, first compound 0.00316 µM) was 102%; the viability, T/C (second compound 1 µM, first compound 0.01 µM) was 105%; the viability, T/C (second compound 1 µM, first compound 0.0316 µM) was 95.1%; the viability, T/C (second compound 1 µM, first compound 0.1 µM) was 81.7%.
For the compound `Cn1nccc1Nc1nccc(-c2ccn(C(CO)c3ccc(Cl)c(F)c3)c(=O)c2)n1` (centres undefined), the viability, T/C (compound 0.0316 µM) was 96.3% [middle of 4 runs]; the viability, T/C (compound 0.1 µM) is 101% [middle of 4 runs]; the viability, T/C (compound 0.316 µM) is 90.4% [middle of 4 runs]; the viability, T/C (compound 1 µM) was 66.4% [middle of 4 runs]; the viability, T/C (compound 3.16 µM) is 56.4% [middle of 4 runs]; the viability, T/C (compound 10 µM) was 40.1% [middle of 4 runs]. In addition, the IC50 (curve of compound) is 3.91 µM [middle of 4 runs].
Take `CC(Cn1ccc(-c2ccc(C#N)c(Cl)c2)n1)NC(=O)c1cc(C(C)O)[nH]n1` (centres undefined): the viability, T/C is, setting by setting: (compound 0.0316 µM) 99.3% [middle of 4 runs]; (compound 0.316 µM) 97.2% [middle of 4 runs]; (compound 1 µM) 101% [middle of 4 runs]; (compound 10 µM) 101% [middle of 4 runs]. Also, the IC50 (curve of compound) is over 10000 nM.
